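These data come from cells grown in 96-well plates and exposed to compound for 48 hours at five concentrations. GI50 = concentration required for 50% inhibition of growth. TGI: concentration producing complete growth inhibition.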
Legend:
Test in all cases: inhibition of tumour cell growth, NCI panel, 48 h
[1] = system: HCT-116 colon
[2] = system: CAKI-1 renal
[3] = system: SK-MEL-2 melanoma
[4] = system: DU-145 prostate
[5] = system: SF-539 CNS
[6] = system: HOP-92 NSCLC
[7] = system: NCI-H23 lung
[8] = system: MOLT-4 leukemia
[9] = system: MCF7 breast
[10] = system: A498 renal

| SMILES | TGI [1] [µM] | TGI [2] [µM] | TGI [3] [µM] | TGI [4] [µM] | TGI [5] [µM] | TGI [6] [µM] | TGI [7] [µM] | TGI [8] [µM] | TGI [9] [µM] | TGI [10] [µM] | GI50 [1] [µM] | GI50 [2] [µM] | GI50 [3] [µM] | GI50 [4] [µM] | GI50 [5] [µM] | GI50 [7] [µM] | GI50 [8] [µM] | GI50 [10] [µM] | GI50 [9] [µM] | GI50 [6] [µM] |
| --- | --- | --- | --- | --- | --- | --- | --- | --- | --- | --- | --- | --- | --- | --- | --- | --- | --- | --- | --- | --- |
| CCOC(=O)c1c(-c2cccc(Cl)c2)c(C(=O)OC)c(C)c2sc(C=O)nc12 | 21.1 | 43 | 37.1 | 37.8 | 35.4 | 34.2 | > 100 | 48.1 | 35.7 | – | – | – | – | – | – | – | – | – | – | – |
| OCCCSCCO | > 100 | > 100 | > 100 | > 100 | > 100 | > 100 | > 100 | > 100 | > 100 | > 100 | – | – | – | – | – | – | – | – | – | – |
| Cc1ccc2nc(-c3ccc(NC(=O)c4ccc(N)cc4)c(S(=O)(=O)O)c3)sc2c1 | > 100 | > 100 | – | > 100 | – | > 100 | > 100 | > 100 | > 100 | > 100 | – | – | – | – | – | – | – | – | – | – |
| Cc1cc2ccc(OC(=O)c3ccc(N=C(N)N)cc3)cc2oc1=O | 76.5 | > 100 | 60.9 | > 100 | 61.6 | > 100 | 46.5 | 54.4 | 54.9 | 43.9 | – | – | – | – | – | – | – | – | – | – |
| O=C(CC(c1ccccc1)C1C(=O)NC(=S)NC1=O)c1ccc([N+](=O)[O-])cc1 (centres undefined) | > 100 | 59.4 | > 100 | > 100 | > 100 | > 100 | > 100 | > 100 | 37.5 | > 100 | – | – | – | – | – | – | – | – | – | – |
| CS(C)(=O)=Nn1c(=O)n2n(c1=O)C1c3ccccc3C2c2ccccc21 | – | > 100 | > 100 | > 100 | > 100 | > 100 | > 100 | > 100 | > 100 | > 100 | – | – | – | – | – | – | – | – | – | – |
| CCN1CCN(c2nc3ccccc3nc2C(=O)c2ccc(OC)c(OC)c2)CC1 | 19.7 | > 100 | > 100 | > 100 | 3.14 | 70.2 | 98.4 | 30.5 | 45.5 | > 100 | – | – | – | – | – | – | – | – | – | – |
| Cc1ccc(OCC2=NC3S/C(=C/c4ccc([N+](=O)[O-])o4)C(=O)N3N2)cc1 (centres undefined) | 15.9 | 32 | 31.7 | 20.5 | 4.3 | 8.8 | 28.8 | 6.94 | – | 37.8 | – | – | – | – | – | – | – | – | – | – |
| COC(=O)C1CC23C4=C(CCC41)CCC1CN4CC(C)C(CC(OC(C)=O)C12COC(C)=O)C43O (centres undefined) | > 100 | > 100 | > 100 | > 100 | > 100 | > 100 | > 100 | > 100 | > 100 | > 100 | – | – | – | – | – | – | – | – | – | – |
| Cc1cc(C)c2c(=O)n(CC(O)CN3CCN(CCOCCO)CC3)sc2n1 (centres undefined) | 30.8 | > 100 | 39.9 | 48.2 | 38.4 | 40.6 | 30.3 | 73.5 | 34.2 | 38.9 | – | – | – | – | – | – | – | – | – | – |
| COc1ccc(-c2nn(-c3ccc(NC(=O)c4cc(Cl)cc(Cl)c4)cc3)cc2-c2ccncc2)cc1Cl | > 100 | > 100 | > 100 | > 100 | > 100 | – | > 100 | > 100 | > 100 | > 100 | 7 | 3.04 | 2.79 | > 100 | 2 | > 100 | 2.83 | 3.04 | > 100 | – |
| O=C(Cc1csc2nc(-c3ccc(Cl)cc3)cn12)N/N=C/c1ccccc1O | – | 16 | – | > 100 | > 100 | 32.4 | > 100 | > 100 | > 100 | > 100 | – | 0.782 | – | 2.72 | 7.93 | 5.32 | 2.17 | 8.32 | 3.34 | 3.39 |
| COc1cccc(/C=N/[N-]C(N)=O)c1[O-].[Ni+2].[OH3+] | 0.27 | 2.19 | 1.46 | – | 2.28 | 0.934 | 0.735 | 1.58 | – | 3.15 | – | – | – | – | – | – | – | – | – | – |
| COc1cc(C2c3cc4c(cc3[C@@H](Nc3ccc(Oc5ccccc5)cc3)C3COC(=O)[C@H]23)OCO4)cc(OC)c1O (some centres undefined) | > 100 | 6.76 | > 100 | – | > 28.2 | – | 6.68 | 2 | > 37.1 | 9.6 | – | – | – | – | – | – | – | – | – | – |
| O=C(/C=C1\N=C(c2ccccc2)N(c2nc3c(Cl)cc(Cl)cc3s2)C1=O)/C=C/c1ccccc1 | > 100 | > 100 | > 100 | > 100 | – | > 100 | > 100 | > 100 | > 100 | > 100 | – | – | – | – | – | – | – | – | – | – |

Reference: PubChem BioAssay (NCI)
